Experimental data reported in ChEMBL document CHEMBL1131639, “Structural analysis of thrombin complexed with potent inhibitors incorporating a phenyl group as a peptide mimetic and aminopyridines as guanidine substitutes” (J Med Chem, 1998).
One block for each compound: values may come before it. Where a SMILES comes first, the peptide text is derived from it.

How the values were obtained:
[1] = target: Integrin alpha-IIb/beta-3 (Homo sapiens, UniProt P05106+P08514); assay: Compound was evaluated for inhibition against Fibrinogen Receptor.; format: protein-complex assay
[2] = target: T1, Prothrombin (Homo sapiens, UniProt P00734); assay: (§1) Compound was evaluated for the inhibition of thrombin
[3] = target: T1, Prothrombin; assay: as §1; remark: listed apart in the source

Chain of Integrin alpha-IIb/beta-3 (P05106 27-788 limits assumed): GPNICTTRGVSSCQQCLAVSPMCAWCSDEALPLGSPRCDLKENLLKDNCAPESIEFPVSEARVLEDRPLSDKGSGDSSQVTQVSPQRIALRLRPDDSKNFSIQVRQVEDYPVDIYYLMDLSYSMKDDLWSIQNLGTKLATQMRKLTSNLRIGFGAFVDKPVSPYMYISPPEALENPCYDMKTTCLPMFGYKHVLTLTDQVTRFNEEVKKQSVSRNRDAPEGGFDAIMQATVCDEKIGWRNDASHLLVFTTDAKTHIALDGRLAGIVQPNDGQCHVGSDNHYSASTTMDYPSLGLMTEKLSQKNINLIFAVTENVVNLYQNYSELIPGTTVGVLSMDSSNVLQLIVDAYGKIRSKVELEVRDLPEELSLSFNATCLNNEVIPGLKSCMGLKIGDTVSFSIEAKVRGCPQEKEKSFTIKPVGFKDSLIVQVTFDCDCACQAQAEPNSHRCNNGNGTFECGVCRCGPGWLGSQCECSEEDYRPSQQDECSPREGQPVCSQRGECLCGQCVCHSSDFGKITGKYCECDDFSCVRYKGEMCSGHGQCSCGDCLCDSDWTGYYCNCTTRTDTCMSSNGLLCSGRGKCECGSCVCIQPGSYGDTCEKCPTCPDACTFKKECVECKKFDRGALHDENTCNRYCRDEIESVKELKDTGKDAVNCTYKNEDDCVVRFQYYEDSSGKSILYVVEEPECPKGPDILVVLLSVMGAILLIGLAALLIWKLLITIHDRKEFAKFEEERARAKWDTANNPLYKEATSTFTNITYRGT
Chain of Integrin alpha-IIb/beta-3 (P08514 32-887 limits assumed): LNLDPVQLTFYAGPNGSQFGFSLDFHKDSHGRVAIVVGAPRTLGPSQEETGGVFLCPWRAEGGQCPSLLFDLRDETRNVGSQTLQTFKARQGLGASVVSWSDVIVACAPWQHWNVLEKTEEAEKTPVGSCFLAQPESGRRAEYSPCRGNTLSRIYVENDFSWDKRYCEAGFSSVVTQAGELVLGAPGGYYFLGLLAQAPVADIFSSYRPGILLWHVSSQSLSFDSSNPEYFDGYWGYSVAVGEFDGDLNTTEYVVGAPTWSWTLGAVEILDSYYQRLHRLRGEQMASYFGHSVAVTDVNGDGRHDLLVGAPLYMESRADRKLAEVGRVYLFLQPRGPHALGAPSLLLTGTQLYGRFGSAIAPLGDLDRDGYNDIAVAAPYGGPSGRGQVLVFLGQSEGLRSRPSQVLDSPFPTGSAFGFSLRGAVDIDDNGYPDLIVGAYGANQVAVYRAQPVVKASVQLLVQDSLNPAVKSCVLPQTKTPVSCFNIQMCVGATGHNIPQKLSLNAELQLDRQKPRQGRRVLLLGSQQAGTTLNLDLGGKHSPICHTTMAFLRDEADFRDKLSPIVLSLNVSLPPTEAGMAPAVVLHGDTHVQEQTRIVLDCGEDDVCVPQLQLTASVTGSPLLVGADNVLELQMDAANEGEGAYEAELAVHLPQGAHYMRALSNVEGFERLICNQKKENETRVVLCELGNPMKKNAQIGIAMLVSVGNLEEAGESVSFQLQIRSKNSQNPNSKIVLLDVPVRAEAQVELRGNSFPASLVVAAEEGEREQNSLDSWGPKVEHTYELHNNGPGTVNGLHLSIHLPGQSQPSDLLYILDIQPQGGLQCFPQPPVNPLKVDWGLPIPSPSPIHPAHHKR
Chain of Integrin alpha-IIb/beta-3 (P08514 891-1039 limits assumed): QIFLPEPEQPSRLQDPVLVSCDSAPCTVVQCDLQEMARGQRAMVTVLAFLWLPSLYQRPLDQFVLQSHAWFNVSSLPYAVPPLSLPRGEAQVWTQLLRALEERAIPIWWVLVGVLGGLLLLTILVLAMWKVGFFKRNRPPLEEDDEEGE

IC50 [1]: 1700 nM
Compound: NC(N)=NCCCC[C@H](N)C(=O)NCC(=O)N[C@@H](CC(=O)O)C(=O)N[C@@H](Cc1cc2ccccc2[nH]1)C(=O)O (HELM PEPTIDE1{[N=C(N)NCCCC[C@H](N)C(=O)[*:2]].G.D.[O=C(O)[C@H](Cc1cc2ccccc2[nH]1)N[*:1]]}$$$$V2.0)

Ki0 [2]: 360 nM
Compound: CC1CCN(C(=O)[C@H](CCCNc2ccc(N)cn2)NS(=O)(=O)c2cccc3c(N(C)C)cccc23)CC1

Ki [3]: 180 nM
Compound: NC(N)=NCCCCNC(=O)[C@@H]1CCCN1C(=O)[C@H](N)Cc1ccccc1 (HELM PEPTIDE1{[dF].P.[N=C(N)NCCCCN[*:1]]}$$$$V2.0)
